Data as given in a melting point compilation (Tetko et al.; mined from patent text by program, amines drawn as free bases though some values may be those of a salt).

For `Cc1c(-c2ccc(OCC3CC3)cc2)nc2n(Cc3c(F)cccc3F)cc(-c3ccccc3)c(=O)n12`, which melting point is on record?
The melting point was 210 to 214 °C.

With `COc1ccc(CC(=O)N[C@@H](C)CO)cc1OC` as the compound, how does the melting point read?
The melting point was 122 to 125 °C.

With `CC(=O)C(C#N)C(=O)C1CC1` (stereo unspecified) as the compound, how does the melting point read?
The melting point was 62 to 63.5 °C.

For `O=c1cc(-c2ccncc2)nc2n1CCCCC2`, which melting point is on record?
Its melting point is 148 to 150 °C.

Which melting point does the source give for `CC(=O)N[C@H](Cc1ccc(C#N)cc1)C(=O)O` here?
Its melting point is 173 to 175 °C.

Which melting point does the source give for `O=S(=O)(O)c1cccc(NCc2ccc(Cl)c(Cl)c2)c1` here?
The melting point was > 275 °C.

Which melting point does the source give for `CC1(c2ccc3noc(-c4ccccc4)c3c2)OCCO1` here?
Its melting point is 69 to 71 °C.

Which melting point does the source give for `Cn1c(-c2ccccc2F)n[nH]c1=S` here?
Its melting point is 137 to 139 °C.

With `CCC(O)(CC)c1ccc(-c2cccc(COc3ccc(CO)c(CO)c3)c2)c(C)c1` as the compound, how does the melting point read?
Its melting point is 87 °C.

With `CCn1cnc2c(Nc3cccc(Cl)c3)nc(NCCN)nc21` as the compound, how does the melting point read?
Its melting point is 79 to 80 °C.

For `CCOC(=O)c1nccn1-c1nc(-c2ccc(Cl)cc2)c(CCCOc2ccccc2OC)o1`, which melting point is on record?
The melting point was 90 to 91 °C.

With `CCOC(=O)COc1c(C)cc(C)c2c1CC(Br)C2=O` (stereo unspecified) as the compound, how does the melting point read?
Its melting point is 71 to 73 °C.

Which melting point does the source give for `O=C1NC(=Cc2ccccc2)C(NCc2ccccc2)=C1[N+](=O)[O-]` here?
Its melting point is 218 °C.

With `O=S1CCON=C1c1cccc(F)c1` (stereo unspecified) as the compound, how does the melting point read?
Its melting point is 79 °C.

With `CCCC1=C([N+](=O)[O-])C(c2cccc3ccccc23)c2c[nH]nc2N1` (stereo unspecified) as the compound, how does the melting point read?
The melting point was 226 °C.

Which melting point does the source give for `COc1ccc2[nH]c3c(c2c1)CCSc1ccccc1-3` here?
Its melting point is 151 to 154 °C.

Which melting point does the source give for `COc1ccc(-c2c(Cl)c(CN3C(=O)COC3=O)nc3sc4c(c23)CCC(C(N)=O)C4)cc1` (stereo unspecified) here?
The melting point was 155 to 156 °C.

With `O=C(O)/C=C\C=C(c1ccccc1)c1ccccc1` as the compound, how does the melting point read?
The melting point was 175 to 176 °C.

With `C[C@@]1(c2ccccc2)OC(c2ccccc2)=NC[C@H]1O` (racemic) as the compound, how does the melting point read?
The melting point was 130 °C.

Which melting point does the source give for `CC(C)(C)C(=O)c1c[nH]c2ncc(-c3ccoc3)nc12` here?
Its melting point is 256 to 258 °C.

With `COC(=O)Cc1ccc(CN2CCN(C(c3ccccc3)c3ccccc3)CC2)cc1` as the compound, how does the melting point read?
Its melting point is 124 to 125 °C.

For `COC(=O)N(CCO)c1ccc(OCc2nc3ccccc3s2)cc1C`, which melting point is on record?
The melting point was 109 to 110 °C.

Which melting point does the source give for `Cc1ccccc1Oc1cccc(NC(=O)c2ccn3c2CSC3c2cccnc2)c1` (stereo unspecified) here?
Its melting point is 180 °C.

Which melting point does the source give for `COc1ccc(-c2cc(C(=O)NCc3ccccn3)c(=O)n(CC3CC3)n2)cc1` here?
Its melting point is 98.6 to 99.3 °C.

For `Cc1cccc(-c2nc3cccnn3c2-c2ccnc(NCC(C)(C)C)c2)c1`, which melting point is on record?
Its melting point is 157 to 158 °C.

With `COC(=O)c1ccc(C=CC(=O)N2CCc3c([nH]c4ccccc34)C2c2ccc3c(c2)OCCO3)cc1` (stereo unspecified) as the compound, how does the melting point read?
The melting point was 136 °C.

For `CCOc1ccc2c(c1)cc1n2CCC1`, which melting point is on record?
Its melting point is 101 to 102 °C.

With `COc1cc(C(C)C)c2c(c1)S(=O)(=O)N(COC(=O)c1c(Cl)ccc(O)c1Cl)C2=O` as the compound, how does the melting point read?
The melting point was 152 to 154 °C.

Which melting point does the source give for `O=C(Cc1c[nH]c2ccccc12)N1CCN(C(=O)c2cc(C(F)(F)F)cc(C(F)(F)F)c2)[C@H](Cc2ccccc2)C1` here?
Its melting point is 201 to 210 °C.

Which melting point does the source give for `CC(=S)NCC1CC(c2ccc(N3CCSCC3)c(F)c2)=NO1` (stereo unspecified) here?
The melting point was 219 to 220 °C.

For `COc1ccccc1-c1ccc2cnc(Nc3cc4c(cc3F)CCC(=O)N4)nn12`, which melting point is on record?
Its melting point is 300 to 305 °C.

Which melting point does the source give for `Cc1cccc2oc(=O)c(=O)[nH]c12` here?
The melting point was 247 to 249 °C.

Which melting point does the source give for `CC(C)Nc1cccnc1N1CCN(C(=O)c2ccc(C(=O)NCCCn3ccnc3)cn2)CC1` here?
The melting point was 105 to 108 °C.

For `Cn1c2c(c3ccccc3c1=O)C(=O)c1cc(OCc3ccccc3)c(OCc3ccccc3)cc1-2`, which melting point is on record?
The melting point was 198 to 200 °C.

Which melting point does the source give for `CN1C2CCC1CN(c1ccc(-c3ccccc3)cn1)C2` here?
Its melting point is 110 °C.

For `O=c1nc(-c2ccccc2)c2cc([N+](=O)[O-])sc2n1CC1CC1`, which melting point is on record?
The melting point was 216 to 218 °C.

For `O=c1[nH]c(-c2ccc(CCN3CCN(c4cccc5ccccc45)CC3)cc2)cs1`, which melting point is on record?
The melting point was 307 to 309 °C.

For `CCCCCc1cc2c(nc(O)n2CC2CCN(C(C)=O)CC2)c(N)n1`, which melting point is on record?
The melting point was 228 to 231 °C.

With `COC(=O)CNC(=O)c1ccc(I)cc1` as the compound, how does the melting point read?
Its melting point is 166 to 168 °C.

For `Cc1c(CO)sc2c(Br)cccc12`, which melting point is on record?
The melting point was 129 to 130 °C.

With `Cc1oc(-c2ccccc2)nc1CCOc1cccc(OC(C)(C)C(=O)O)c1` as the compound, how does the melting point read?
The melting point was 140 to 141 °C.

With `Cc1ccc(S(=O)(=O)NCCCCOc2ccc(-n3cccc3)cc2)cc1` as the compound, how does the melting point read?
The melting point was 124 to 126 °C.

With `CCOC(=O)C1=C(COCCO)Nc2ccnc(OC(C)C)c2C1c1ccccc1C(F)(F)F` (stereo unspecified) as the compound, how does the melting point read?
The melting point was 109 to 112 °C.

Which melting point does the source give for `CCn1c(=O)[nH]c2c3cccnc3ccc21` here?
Its melting point is 258 to 259 °C.

For `CSCCC(C)NC(=O)c1c(I)cccc1C(=O)O` (stereo unspecified), which melting point is on record?
The melting point was 148 to 150 °C.

With `CC(Oc1ccc(-c2ccc(F)c(C#N)c2)cc1)C(O)CCc1cccnc1` (stereo unspecified) as the compound, how does the melting point read?
The melting point was 108 to 109 °C.

With `COc1c(Cl)ccc(-c2cc(N)c(Cl)c(C(=O)NOCCC#N)n2)c1F` as the compound, how does the melting point read?
The melting point was 191 to 194 °C.

With `CCOc1cc(C=O)cc2c1OC1(C=C2Br)CCN(C(=O)OC(C)(C)C)CC1` as the compound, how does the melting point read?
Its melting point is 148 to 150 °C.

With `CC(=O)OCC1OC(N(CCCl)P(=O)(O)NCCCl)C(OC(C)=O)C(OC(C)=O)C1OC(C)=O` (stereo unspecified) as the compound, how does the melting point read?
The melting point was 91 °C.

For `O=C(O)CCc1cnoc1-c1ccc(F)cc1`, which melting point is on record?
Its melting point is 126 to 127 °C.

Which melting point does the source give for `COC(C)(CC(=O)NC1CCCCC1)OC` here?
Its melting point is 66 °C.
